Results on one compound are retold here after publication PMC9882606, “Rationally designed inhibitors of the Musashi protein-RNA interaction by hotspot mimicry” (Research Square, 2023).

For assay [1], the target named is T1, MSI2 (Homo sapiens, UniProt Q96DH6). Nature of the assay: mRNA immunoprecipitation (RIP) with anti-MSI2 in PC9 cells. Format: cell-based. More on the design: endogenous in cells; host or cells: PC9. The settings on record: PC9, 10 μM, 8 hours. From the text: Among previously described targets of MSI2 are PTP4A, SMAD3, EGFR, and MSI2 itself. To test for disruption of MSI2 with these cognate mRNAs upon treatment with R12–8–44–3, we used mRNA immunoprecipitation (RIP): we used an anti-MSI2 antibody to immunoprecipitate MSI2, then reverse transcribed and analyzed by qPCR to determine the amount of each specific mRNA that was bound to MSI2. As an important control to ensure that the resulting mRNA was indeed brought down by MSI2, we additionally verified that using a negative control antibody (instead of anti-MSI2) brought with it 100-fold less of each target mRNA (Figure S10). As a separate negative control, GAPDH mRNA was also quantified in the context of these studies (since GAPDH is not thought to be a target of MSI2).
T1 sequence (Q96DH6 whole entry): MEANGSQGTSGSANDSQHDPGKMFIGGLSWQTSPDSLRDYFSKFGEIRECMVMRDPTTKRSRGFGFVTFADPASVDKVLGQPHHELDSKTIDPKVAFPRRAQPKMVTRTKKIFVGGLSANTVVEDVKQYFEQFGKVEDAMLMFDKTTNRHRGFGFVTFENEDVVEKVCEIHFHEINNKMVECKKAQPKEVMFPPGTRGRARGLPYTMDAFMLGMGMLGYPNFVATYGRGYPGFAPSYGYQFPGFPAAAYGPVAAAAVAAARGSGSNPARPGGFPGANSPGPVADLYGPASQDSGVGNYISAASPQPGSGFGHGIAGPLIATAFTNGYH
PC9 cells were then treated with 10 μM of each compound for 8 hours and then analyzed by RIP.
Figure 7: Cellular characterization of MSI2 inhibition by R12–8–44–3. (A) Quantification of mRNA immunoprecipitation (RIP) results. […] After immunoprecipitation with anti-MSI2, mRNA targets were quantified. The amount of each target mRNA in the pulldown was calculated relative to the input, and results from all targets were normalized to PTP4A1. […] Cells were treated with indicated compounds at two concentrations (5 μM and 20 μM) for 48 hours, then protein levels of relevant MSI2 targets were determined (EGFR, SMAD3, and MSI2). […]

For assay [2], the target named is T1, MSI2. Nature of the assay: MS2-TRAP aptamer pull-down reporter assay in HEK293 cells. The settings on record: HEK293, 24 h treatment. More on the design: HEK293 cells (with a high baseline MSI2 expression); endogenous in cells; host or cells: HEK293. Format: cell-based. The text has this: Figure 5: Characterization of R12–8–44–3 in a reporter cell line. […] As a positive control, Ro 08–2750 (aka “Ro”) is also included in these studies. (B) Schematic of reporter assay. HEK293 cells are transfected with a plasmid encoding an arbitrary gene (Luc) with UAG repeats (to recruit MSI2) and MS2 repeats (for pulldown) appended to its 3’ UTR. The same vector also includes FLAG-labeled MS2-BP. Upon anti-FLAG immunoprecipitation (IP), the FLAG-labeled MS2-BP allows purification of the Luc mRNA along with any associated factors. (C) Prior to IP, cells express Luc mRNA to a similar extent irrespective of whether they were treated with DMSO, R12-neg, R12–8–44–3, or Ro. (D) Prior to IP (“input”), MSI2 is detected in all samples to a similar extent (as is KU-86 loading control). After pulldown of Luc mRNA, MSI2 is found associated with the mRNA in cells treated with DMSO or R12-neg, but not in cells that had been treated with R12–8–44–3 or Ro. Representative image is shown; quantification is plotted as the average of 2 independent experiments ± S.E.M. Statistical analysis was performed using unpaired two tailed t-test, with * indicating p<0.05. Uncropped Western blots from this experiment are provided as Figure S8.
To determine whether inhibition of MSI1/MSI2 by R12–8–44–3 would apply in a cellular context, we adapted an aptamer pull-down reporter assay that we previously used to validate candidate Musashi target genes. Briefly, our approach is a variation of the MS2-TRAP (MS2-tagged RNA affinity purification) method, which uses bacteriophage protein MS2-BP to extract from cells any factors that associate with RNAs containing a specific stem-loop structure (MS2) from the phage genome. Here, we designed an mRNA construct that would include a series of MS2 hairpins and also a MSI2 recognition sequence. We transfected this construct into cells that also express FLAG-tagged MS2-BP (a protein unrelated to MSI2). By affinity purification using the FLAG tag, proteins bound to the designed mRNA can be extracted from cells.
To test for inhibition of MSI2 in cells, we transfected HEK293 cells (with a high baseline MSI2 expression), with the pMS2-LUC-3’UTR from our previous studies. This vector appends onto the 3’UTR of an arbitrary gene (in this case luciferase) two key elements: UAG-motifs comprising a MSI2 recognition sequence, and a series of five MS2 hairpins. The same vector also encodes the FLAG-MS2-BP fusion needed for affinity purification (Figure 5b). Cells were then treated with each compound of interest for 24 h, and then the cells were subsequently harvested and used for anti-FLAG immunoprecipitation. […] Using qPCR we evaluated the amount of Luc mRNA in cells treated with R12–8–44–3, R12-neg, or Ro, and found this to be unchanged (Figure 5c).
A general note: A reporter such as luciferase makes a cellular process visible.

Another assay concerns the target T2, MSI1 RRM1 (Homo sapiens, UniProt O43347).
T2 sequence (O43347 20-110 limits assumed): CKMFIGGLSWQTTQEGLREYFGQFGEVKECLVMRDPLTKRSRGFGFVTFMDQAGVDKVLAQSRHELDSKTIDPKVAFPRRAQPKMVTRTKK
Nature of the assay: Differential Scanning Fluorimetry (DSF). In kind it is binding. The settings on record: increasing compound dose. From the text:
Out of concern that R12–7’s activity may be associated with compound aggregation, we elected to continue with optimization of R12–8 (Figure 2b).
To further characterize R12–8–44–3, we applied differential scanning fluorimetry (DSF) as an orthogonal secondary assay. […] While this could be a sign of apparent inhibition occurring through aggregation, there are also legitimate inhibitors that reduce their target protein’s melting temperature. An alternate explanation could simply be that MSI1’s folding landscape is not simply two-state, and that a partially-folded intermediate stabilized by R12–8–44–3 affects the unfolding transition.
(In general: DSF heats the sample and reads unfolding from a dye or from intrinsic fluorescence.)

As for `Cc1cc(C(=O)OCc2nc(N)c3c(C)c(C)sc3n2)c(N)cc1F` [R12–8–44–3], on MSI2 [1], the “amount of target mRNA associated with MSI2 (PTP4A, SMAD3, EGFR, MSI2)” value is “statistically significant reduction in the amount of mRNA associated with MSI2”. Besides, the “MSI2 purified with reporter mRNA (anti-FLAG pulldown)” value at MSI2 [2] is listed as “much less MSI2 is purified”. At MSI2 [2] (input prior to IP), the “total amount of MSI2 in cells” value is given as “unaffected”. For the same compound, the “amount of Luc mRNA in cells (qPCR)” value at MSI2 [2] (prior to IP) is “unchanged”. The “change of the protein's melting temperature” value on MSI1 RRM1 was “monotonically decreased MSI1’s melting temperature”.
